These results are taken from PubChem BioAssay AID1324 (NMMLSC, 2008).

The structures appear in SMILES notation. pEC50: −log10 of the molar value. The source made the active and inactive calls. How the calls were made is not given here.

In the test the target is glutathione S-transferase (GST-GSH binding). The test is described as follows: GST–glutathione interaction disruption – biochemical, multiplex beads, flow cytometry, HPSMTB buffer, profiling panel (AID 1324).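 On all read-outs here: glutathione beads loaded with GST-green fluorescent protein and no fluorescent Bim peptide.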 To be noted: multiplex bead flow cytometry, MCF; for percent span inhibition: active compounds read high, concentration not given here. On the technique in general: In flow cytometry, cells or beads pass a laser one at a time.

`NC(=O)c1c(N)sc2c1CCCCC2`: the percent span inhibition entry is “inactive”.

As to `COCCn1nnnc1CN(Cc1ccco1)Cc1cc2cc3c(cc2[nH]c1=O)OCO3`, the percent span inhibition entry was “inactive”.

On to `CC1Nc2ccccc2C(=O)N1NS(=O)(=O)c1ccccc1` (stereo unspecified), for which the percent span inhibition entry was “inactive”.

Regarding `COc1ccc(C2=Nn3c(nnc3-c3ccco3)SC2)cc1OC`, the pEC50 is 5.34.

On to `O=C(Nc1cccc(Cl)c1)Nc1ccnc(-c2cccnc2)n1`, for which the EC50 entry was “inactive”.

Turning to `COc1ccc2nc(C)cc(SCC(=O)N/N=C/c3ccc(O)c(O)c3)c2c1`, the percent span inhibition entry is “inactive”.

`COc1ccc(NC(=O)c2ccc(CN3CCN(c4ccccc4)CC3)cc2)cc1`: the percent span inhibition entry was “inactive”.

As to `CSc1nnc2ccc(-c3cccs3)nn12`, the percent span inhibition result was “inactive”.

Take `CCn1c(C)nc2cc(C(=O)N/N=C/c3ccc(O)c(O)c3O)ccc21`: the percent span inhibition result is “inactive”.

With `CC(C)c1ccc(/C=N/NC(=O)c2ccccc2Cl)cc1`, the percent span inhibition result was “inactive”.

For the compound `Cc1cc(N2CCN(C)CC2)nc2ccc(NC(=S)N3CCCCC3)cc12`, the percent span inhibition result was “inactive”.

Consider `O=C(Cc1ccccc1)OCCNC(=O)c1cccnc1`, for which the percent span inhibition result was “inactive”.

`O=C(CSc1ccc(-c2ccccc2)nn1)NCc1ccco1`: the percent span inhibition entry was “inactive”.

On to `FC(F)(F)c1ccc2c(c1)C1C=CCC1C(c1ccncc1)N2` (stereo unspecified), for which the percent span inhibition result is “inactive”.

As to `COc1ccc(N2CCN(C(=O)c3cc(=O)[nH]c4ccccc34)CC2)cc1`, the percent span inhibition result is “inactive”.

Consider `Cc1cc(C)nc(/N=c2/ssnc2Cl)c1`, for which the percent span inhibition result was “inactive”.

`CCN(CC)c1ccc(-c2nn3c(-c4cccnc4)nnc3s2)cc1`: the percent span inhibition result was “inactive”.

As for `C(=C\c1ccccc1)/CSc1nnc(-c2ccccn2)n1Cc1ccco1`, the percent span inhibition entry is “inactive”.

As for `O=S1(=O)N=C(N(CCO)/N=C/c2ccccc2)c2ccccc21`, the percent span inhibition entry was “inactive”.

With `CC(=O)Nc1ccc(-n2cc(-c3ccccc3)[nH]c2=S)cc1`, the percent span inhibition result was “inactive”.

For the compound `O=C(N/N=C/c1cccnc1)c1cccc(S(=O)(=O)N2CCCC2)c1`, the percent span inhibition result is “inactive”.

With `CN(C)c1ccc(/C=C2/SC(=O)N(CCN=C3NS(=O)(=O)c4ccccc43)C2=O)cc1`, the percent span inhibition result is “inactive”.

Consider `COc1ccc(NC(=O)/C(C#N)=C/c2c(C)nn(-c3ccc(F)cc3)c2Cl)cc1Cl`, for which the percent span inhibition entry was “inactive”.

Take `Cc1ccc(-c2c3c([nH]c(=S)c2C#N)CCCC3)o1`: the percent span inhibition entry is “inactive”.

As for `O=C(Nc1nccs1)c1ccc(COc2ccc(F)cc2)o1`, the percent span inhibition entry is “inactive”.

In the case of `CS(=O)(=O)NN1C(=O)c2ccccc2NC1c1ccccc1` (stereo unspecified), the percent span inhibition entry was “inactive”.

Turning to `O=C(Nc1ccc2nc(-c3ccco3)c(-c3ccco3)nc2c1)N1CCCCCC1`, the EC50 result was “inactive”.

As to `COc1cc(N2CCOCC2)ccc1C=C1C(=O)NC(=O)NC1=O`, the percent span inhibition result was “inactive”.

`Cn1c(N)c(C(=O)COC(=O)c2cc(-c3ccco3)nc3ccccc23)c(=O)n(C)c1=O`: the percent span inhibition entry is “inactive”.

`N/C(Cc1ccc(Cl)c(Cl)c1)=N\OC(=O)c1cccs1`: the percent span inhibition entry was “inactive”.

As for `O=C(Nc1cccc(-c2ccc3nncn3n2)c1)c1ccco1`, the percent span inhibition result was “inactive”.

With `COc1ccc(CC(=O)Nc2ccccc2Oc2ccccc2)cc1`, the percent span inhibition entry was “inactive”.

Consider `O=C1c2ccccc2-c2onc3ccc(NCCCn4ccnc4)c1c23`, for which the EC50 result is “inactive”.

In the case of `Cc1ccc(-c2cc(C(=O)N3CCN(c4ncccn4)CC3)c3cc(Br)ccc3n2)o1`, the percent span inhibition result is “inactive”.

In the case of `S=C1NC2=C(CCC/C2=C\c2ccccc2)C(c2ccccc2)N1` (stereo unspecified), the percent span inhibition result is “inactive”.

As for `CN(CCCOc1ccccc1Br)Cc1ccccc1`, the percent span inhibition result is “inactive”.

In the case of `CCOC(=O)C1CCCN(c2ncnc3c2cnn3-c2cccc(C)c2)C1` (stereo unspecified), the percent span inhibition result was “inactive”.

With `Cc1cc(C)cc(NS(=O)(=O)c2ccc3c(c2)c(=O)n(C)c(=O)n3C)c1`, the percent span inhibition result was “inactive”.

As to `CCN1/C(=C/c2ccc3cc(C)cc(C)c3[n+]2CC)Sc2cc(C)ccc21`, the percent span inhibition entry is “inactive”.

As for `CCN(CC)c1ccc(NC(=O)COc2ccccc2C)cc1S(=O)(=O)Nc1ccccc1OC`, the percent span inhibition result is “inactive”.

For `S=c1[nH]cc(-c2ccccc2)n1-c1ccccc1Cl`, the percent span inhibition entry is “inactive”.

`CCC(CC)C(=O)Nc1cccc(S(=O)(=O)c2cccc(NC(=O)C(CC)CC)c2)c1`: the percent span inhibition result is “inactive”.

With `O=C(NCCN1CCOCC1)c1cc(Cl)ccc1[N+](=O)[O-]`, the percent span inhibition result was “inactive”.

As for `CN(CC(=O)O/N=C(\N)c1ccc([N+](=O)[O-])cc1)S(=O)(=O)c1ccccc1`, the percent span inhibition result is “inactive”.

Turning to `CCN(CC)c1ccc(-c2nn3c(-c4ccccc4OC)nnc3s2)cc1`, the percent span inhibition entry is “inactive”.

`CNc1ccc(Br)cc(C(=O)/C=C/c2cccc(OC)c2OC)c1=O`: the percent span inhibition entry was “inactive”.

As for `COc1ccc(C2=Nc3cccc4cccc(c34)N2)cc1`, the percent span inhibition result was “inactive”.

For the compound `CN(C)/C=C/C(=O)c1ccc(C(F)(F)F)cc1F`, the percent span inhibition result is “inactive”.

On to `CN(C)c1ncc(C2=C(Cl)C(=O)C(N3CCCC3)=C(Cl)C2=O)s1`, for which the pEC50 is 5.05.

Regarding `CN(C(=O)NC1CCCCC1)c1ccccc1`, the percent span inhibition entry was “inactive”.

As for `CCOC(=O)CCCNC(=O)c1cncc(O)c1`, the percent span inhibition entry was “inactive”.

With `O=C(Cc1ccc(-c2ccccc2)cc1)NC1CCCC1`, the percent span inhibition entry is “inactive”.

As to `OC(COc1ccc2cc(Br)ccc2c1)CN1CCOCC1` (stereo unspecified), the percent span inhibition entry was “inactive”.

With `CCOC(=O)C1=C(CC)Nc2ccccc2N=C1NC(=O)c1ccc(S(=O)(=O)N2CCOCC2)cc1`, the percent span inhibition result was “inactive”.

For the compound `O=c1c2c(-c3ccccc3)csc2nc2c3ccccc3c(NCCN3CCOCC3)nn12`, the pEC50 is 6.68.

Take `CCCCNC(=O)c1ccc2nc(-c3ccco3)c(-c3ccco3)nc2c1`: the percent span inhibition result was “inactive”.

As for `O=C(C1=NN(c2ccccc2)C2C(=O)N(c3ccccc3)C(=O)C12)c1ccccc1` (stereo unspecified), the percent span inhibition entry was “inactive”.

Turning to `Cc1ccccc1-n1c(SCc2cccc(F)c2)nc2[nH]ncc2c1=O`, the percent span inhibition result is “inactive”.

Turning to `O=C(NCCO)c1ccc2nc(-c3ccco3)c(-c3ccco3)nc2c1`, the pEC50 was 5.04.

Turning to `COc1cccc(-n2nnnc2SCC(=O)Nc2cccc(NC(C)=O)c2)c1`, the percent span inhibition entry is “inactive”.

`O=C(C[n+]1ccc(-c2nnc3n2CCC3)cc1)c1ccc(Cl)cc1`: the percent span inhibition entry is “inactive”.

Turning to `Cc1ccc(C)c(N2CCN(C(=S)Nc3ccc4nc(N5CCN(C)CC5)cc(C)c4c3)CC2)c1`, the percent span inhibition entry was “inactive”.

`O=C1c2ccccc2-c2onc3ccc(N4CCCC4)c1c23`: the percent span inhibition result is “inactive”.

As to `COc1cccc(/C=N/Nc2nn3cnnc3c3ccccc23)c1O`, the percent span inhibition entry was “inactive”.

Turning to `Cc1ccc(/C=C2/NC(=O)N(Cc3ccccc3)C2=O)o1`, the percent span inhibition result was “inactive”.

Consider `O=C1c2ccccc2C(=O)N1CN(C(=O)COc1ccc(Cl)cc1Cl)c1cccc(F)c1`, for which the percent span inhibition result is “inactive”.

As to `CCOC(=O)c1cc2c(=O)n3cccc(C)c3nc2n(Cc2ccco2)c1=NC(=O)c1ccccc1`, the percent span inhibition result was “inactive”.

Regarding `Cc1ccc(-c2n[nH]c(=S)n2-c2ccccc2)cc1`, the percent span inhibition result was “inactive”.

In the case of `CCCc1nnc2n1N=C(c1ccc(-c3cc(Cl)ccc3Cl)o1)CS2`, the percent span inhibition entry is “inactive”.

Turning to `CN1CCN(c2ccccc2N)CC1`, the percent span inhibition entry is “inactive”.

Consider `Cc1[nH]nc(SCC(=O)NCc2ccc(F)cc2)c1[N+](=O)[O-]`, for which the percent span inhibition entry is “inactive”.

On to `O=C1/C(=C\c2ccco2)NC(=S)N1c1ccccc1`, for which the percent span inhibition result was “inactive”.

`Cc1cc(-c2csc(N)n2)c(C)n1CCc1ccccc1`: the percent span inhibition entry was “inactive”.

Consider `COc1ccccc1C1=Nc2cccc3cccc(c23)N1`, for which the percent span inhibition result is “inactive”.

Turning to `Cc1ccc(C)c(Oc2ncnc(N)c2[N+](=O)[O-])c1`, the percent span inhibition result is “inactive”.

Regarding `O=C1c2ccccc2C(=O)c2cc(S(=O)(=O)Nc3ccccc3)ccc21`, the percent span inhibition result was “inactive”.

`COc1ccc(-c2nnc(SCC(=O)Nc3nc4ccccc4s3)n2C)cc1`: the percent span inhibition result is “inactive”.

Regarding `CC1Nc2ccccc2C(=O)N1NS(C)(=O)=O` (stereo unspecified), the percent span inhibition result is “inactive”.

On to `Clc1nc(NCc2cccnc2)nc(N2CCOCC2)n1`, for which the percent span inhibition result was “inactive”.

In the case of `COc1ccc(C2CN(C)CC2C(=O)c2ccc(F)cc2)cc1Cl` (stereo unspecified), the percent span inhibition entry is “inactive”.

Take `COc1ccc(CC(=O)Nc2ccc(-c3nc4cc(C)ccc4o3)c(O)c2)cc1OC`: the percent span inhibition entry was “inactive”.

For the compound `COc1ccc(-n2cc(-c3ccc(OC)c(OC)c3)[nH]c2=S)cc1`, the percent span inhibition entry was “inactive”.

Consider `O=[N+]([O-])c1cccc(S(=O)(=O)NCC2CCCO2)c1` (stereo unspecified), for which the percent span inhibition entry is “inactive”.

Take `COc1ccccc1OCc1ccc(C(=O)Nc2ccccc2F)cc1`: the percent span inhibition entry is “inactive”.

On to `CC(C)n1nnnc1SCC(=O)N1CCN(C(=O)c2ccco2)CC1`, for which the percent span inhibition result is “inactive”.

As for `C=CCSc1nc(N)c2c(C)c(C)sc2n1`, the percent span inhibition entry is “inactive”.

For the compound `Cn1cccc1CC(=O)N/N=C\c1ccccc1`, the percent span inhibition result is “inactive”.

With `CCSc1ncnc2sc(C)c(C)c12`, the percent span inhibition result is “inactive”.

`O=C(Nc1cccc(Cl)c1)Nc1ccc(Cl)cn1`: the percent span inhibition entry is “inactive”.

Regarding `Cc1ccc(C(=O)C(C(=O)/C=C/c2ccccc2)=C2SCCCS2)cc1`, the percent span inhibition result was “inactive”.

For `O=[N+]([O-])c1ccc2[nH]nc(-c3ccccc3)c2c1`, the percent span inhibition result is “inactive”.

The term pEC50 denotes the EC50 on a negative log10 scale, so that one unit is a factor of ten.
